The source of these data is PMC6857474, “Differential Effects of the Mitochondria-Active Tetrapeptide SS-31 (D-Arg-dimethylTyr-Lys-Phe-NH2) and Its Peptidase-Targeted Prodrugs in Experimental Acute Kidney Injury” (Frontiers in Pharmacology, 2019).

The structures appear in SMILES notation. Where two headings read alike, the source gives them in different places. Non-standard residues stand in square brackets, D forms with d. Residues, ends and D or L forms follow the SMILES beside them. Dmt = Cc1cc(O)cc(C)c1C[C@H](N)C(=O)O

One data set in a line: in vivo. Conditions: male, mouse, ip, 30 mg/kg. How it is done: For PK evaluation, SS-31 was administered i.p. to male mice in suspension (gelatine/saline 7.5%/0.62% in water) using an administration volume of 4 ml/kg. Blood samples were collected in tubes containing EDTA as an anticoagulant, and plasma was separated by centrifugation and stored at −80°C. Liver and kidney samples (∼100 mg aliquots) were homogenized in three volumes of water using Precellys tissue homogenization tubes (precellys.com). Twenty-five microliters of each tissue homogenate was further diluted with 25 µl blank plasma to produce the final tissue homogenate for extraction. Prepared samples were stored at −20°C before analysis.
All samples were analyzed using protein precipitation followed by LC-MS/MS analysis. Briefly, 50 µl plasma or final tissue homogenate was mixed with 50 µl 0.5 M HClO4/acetonitrile 9/1 (containing 200 ng/ml bosentan as an internal standard). Samples were stirred and 300 µl water was added, followed by centrifugation at 5600 rpm (4°C, 10 min). Ten microliters of supernatant was analyzed by LC/MS. Calibration standards in plasma were prepared the same way. The LC columns and conditions used were as follows: Phenomenex, Polar RP, 4 µm, and 50 × 2.1 mm at 0.4-ml/min flow rate with a 3-min gradient from 95% solvent A to 95% solvent B (solvent A: water/acetonitrile/HCOOH, 90:10:0.1 with 10 mM NH4 formate; solvent B: water/ACN/HCOOH, 10:90:0.1 with 10 mM NH4 formate). Mass spectrometric conditions were as follows: Thermo TSQ Vantage with positive heated electrospray ionization in MS/MS mode. Mass transitions of the compounds were m/z 320.7 to 119.9. Relative concentrations of the drug and metabolites were established by the percentage of peak area ratio compared to time zero spiked compounds. PK parameters for all studies were calculated using Phoenix WinNonlin Software.

Data set [1] can be described thus: Stability in mouse plasma at 37°C. The format is in vitro ADME. Conditions: for Stability [% of T0] / Release of SS-31 from α-Glu-SS-31: 1 μM; for remaining at 0.5 h, 1 µM / remaining at 1 h, 1 µM / remaining at 3 h, 1 µM / remaining at 5 h, 1 µM: heparinized mouse plasma, read-out: Stability [% of T0]. The method, then:
Finally, we determined if α-Glu functionalization of SS-31 would improve the plasma stability of the compound. SS-31 or α-Glu-SS-31 (at 1 µM concentration) was added to heparinized mouse plasma, and the aliquots were incubated at 37°C for various time points before analysis ( Table 2 ). After a rapid decrease of α-Glu-SS-31 concentration, associated with the appearance of free SS-31, in mouse plasma, the concentration of both compounds remained stable for up to 5 h, whereas SS-31 concentration decreased regularly during the same period of time.

Data set [2] has as its target T1, aminopeptidase A (APA) (Rattus norvegicus, UniProt P50123).
T1 construct: These cells express high levels of APA and γ-GT activities and can be used to measure kinetics in living cells; endogenous in cells; host or cells: EC219 rat brain-derived endothelial cells
Description: APA enzymatic activity in intact living EC219 cells (α-Glu-AMC substrate). The format is cell-based. The method, then: The preparation and characterization of rat brain-derived EC219 endothelial cells were previously described ([Juillerat-Jeanneret et al., 1992]). These cells express high levels of APA and γ-GT activities and can be used to measure kinetics in living cells as APA and γ-GT-positive representative cell models. The cells were grown in Dulbecco’s modified Eagle medium (DMEM) containing 1 g/L glucose, 10% heat-inactivated fetal calf serum (FCS), and antibiotics on uncoated cell culture plastic plates and flasks. MDCK and LLCPK cells were obtained from the American Tissue Culture Collection (ATCC, Manassas, VA, USA) and were grown in DMEM containing 4.5 g/L glucose, 10% FCS, and antibiotics. mCCD, and mDCT cells were a kind gift from O. Bonny (UNIL, Lausanne, Switzerland) and were cultured in DMEM (Ham’s F12 1:1 vol/vol, 60 nM sodium selenate, 5 μg/ml transferrin, 50 nM dexamethasone, 1 nM triiodothyronine, 10 ng/ml epidermal growth factor, 5 μg/ml insulin) and 2% FCS. The characteristics of the used cell lines are shown in Supplementary Table S2 .
Stock solutions of α-Glu-AMC (APA) and γ-Glu-AMC and Gly-Gly (γ-GT) substrates, all from Bachem, were prepared at 10 mM in DMSO. EC219 cells were grown to confluence in 96-well plates (Corning, NY, USA), then the culture medium was removed, and the cell layers washed once with 100 µl PBS and 100 µl of substrates at decreasing concentrations (320–10 µM) of α-Glu-AMC or γ-Glu-AMC and 20 mM Gly-Gly substrates diluted in PBS and increasing concentrations (0–20 µM) of SS-31 analogs were added. The increase in […] was measured at 37°C in a thermostated fluorescence multiwell-plate reader (CytoFluor Series 4000; PerSeptive Biosystems, MA, USA) at λex = 360 nm/λem = 460 nm using the linear portion of the curves. The kinetics values were then graphically determined or according to Wu and colleagues ([Wu et al., 2011]).
(A) Intact living EC219 cells were exposed to increasing concentrations of either amastatin (left panel) or acivicin (right panel), two well-characterized enzymatic activity inhibitors of APA or γ-GT, respectively. The activities of the enzymes aminopeptidase A (APA) or γ-glutamyltranspeptidase (γ-GT) were determined using 40 µM of the substrates (S), α-Glu-AMC or γ-Glu-AMC, respectively. (B) Intact living EC219 cells were exposed to increasing concentrations [10-320 µM] of the APA α-Glu-AMC substrate, in the presence of increasing concentrations of SS-31 or α-Glu-SS-31, and the increase of free AMC fluorescence was recorded. Data were analyzed graphically. (DMSO 0.2% was present in all samples).

Data set [3] addresses T2, aminopeptidase A (APA) (Mus musculus, UniProt P16406).
T2 construct: from tissue; host or cells: frozen kidney sections of ADR-treated BALB/c male mice
T2 sequence (P16406 1-945): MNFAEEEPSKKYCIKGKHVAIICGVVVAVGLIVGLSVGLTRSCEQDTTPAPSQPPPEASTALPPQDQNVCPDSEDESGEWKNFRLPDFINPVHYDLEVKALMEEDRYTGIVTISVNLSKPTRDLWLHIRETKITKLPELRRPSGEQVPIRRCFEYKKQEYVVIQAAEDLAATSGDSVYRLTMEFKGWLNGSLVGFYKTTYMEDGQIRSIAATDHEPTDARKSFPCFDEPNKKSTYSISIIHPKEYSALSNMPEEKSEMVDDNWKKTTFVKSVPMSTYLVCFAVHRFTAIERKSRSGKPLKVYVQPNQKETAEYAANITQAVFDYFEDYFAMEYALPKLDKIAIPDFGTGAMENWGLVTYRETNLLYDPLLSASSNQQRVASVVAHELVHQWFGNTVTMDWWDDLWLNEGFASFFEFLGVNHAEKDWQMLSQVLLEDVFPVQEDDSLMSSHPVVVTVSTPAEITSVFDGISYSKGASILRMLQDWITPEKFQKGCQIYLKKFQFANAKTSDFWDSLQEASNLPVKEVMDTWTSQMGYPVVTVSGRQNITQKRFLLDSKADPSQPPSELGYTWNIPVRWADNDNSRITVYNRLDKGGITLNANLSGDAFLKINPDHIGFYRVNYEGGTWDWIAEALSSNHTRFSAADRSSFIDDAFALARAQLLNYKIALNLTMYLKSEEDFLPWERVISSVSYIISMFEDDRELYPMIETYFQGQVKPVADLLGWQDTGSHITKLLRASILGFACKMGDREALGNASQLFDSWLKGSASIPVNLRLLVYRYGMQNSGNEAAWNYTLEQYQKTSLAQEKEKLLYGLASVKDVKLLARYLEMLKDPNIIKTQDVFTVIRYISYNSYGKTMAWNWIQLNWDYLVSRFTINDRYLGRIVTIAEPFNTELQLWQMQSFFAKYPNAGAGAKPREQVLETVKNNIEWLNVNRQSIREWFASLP
In words: Histoenzymography of APA activity on frozen kidney sections of ADR-treated mice. The format is biochemical. The following applies: kidney sections of ADR-exposed mice, α-Glu-βNA substrate, 37°C. How it is done:
Enzymatic activities were evaluated by histoenzymography on OCT-embedded frozen kidneys sections (7 µm), as previously described ([Juillerat-Jeanneret et al., 1992]; [Juillerat-Jeanneret et al., 2000]; [Juillerat-Jeanneret et al., 2003]). Briefly, slides were fixed for 5 min in cold (−20°C) acetone, air dried at room temperature, rehydrated for 5 min in 0.9% NaCl, and exposed to the α-Glu-4-methoxy-β-naphtylamide (APA; Bachem) or γ-Glu-4-methoxy-β-naphtylamide (γ-GT; Serva) substrates and Fast Blue B (Sigma-Aldrich) at 37°C for 15 to 60 min until a red coloration was visible. The slides were washed in distilled water, counterstained with hematoxylin (Mayer) for 1 min, rinsed under tap water and then with Scott solution for 1 min, and mounted in Aquamount (Immu-mount; Thermo Shandon, Pittsburgh, PA, USA) and analyzed with a Nikon Eclipse E800 microscope and digital DXM1200 camera using ACT-1 software.
Sequential sections (7 µm) of frozen OCT-embedded kidneys of adriamycin (ADR)-treated mice were exposed at 37°C to β-methoxynaphthylamide (β-NA) specific substrates of aminopeptidase A (α-Glu-βNA, upper panels) or γ-glutamyltranspeptidase (γ-Glu-βNA, lower panels) and Fast Blue B, in the absence (none) or the presence of SS-31, α-Glu-SS-31 or γ-Glu-SS-31. The sections were then counterstained with light hematoxylin reagent. The enzymatic activity is visualized as a red precipitate. […]

T1 sequence (P50123 whole entry): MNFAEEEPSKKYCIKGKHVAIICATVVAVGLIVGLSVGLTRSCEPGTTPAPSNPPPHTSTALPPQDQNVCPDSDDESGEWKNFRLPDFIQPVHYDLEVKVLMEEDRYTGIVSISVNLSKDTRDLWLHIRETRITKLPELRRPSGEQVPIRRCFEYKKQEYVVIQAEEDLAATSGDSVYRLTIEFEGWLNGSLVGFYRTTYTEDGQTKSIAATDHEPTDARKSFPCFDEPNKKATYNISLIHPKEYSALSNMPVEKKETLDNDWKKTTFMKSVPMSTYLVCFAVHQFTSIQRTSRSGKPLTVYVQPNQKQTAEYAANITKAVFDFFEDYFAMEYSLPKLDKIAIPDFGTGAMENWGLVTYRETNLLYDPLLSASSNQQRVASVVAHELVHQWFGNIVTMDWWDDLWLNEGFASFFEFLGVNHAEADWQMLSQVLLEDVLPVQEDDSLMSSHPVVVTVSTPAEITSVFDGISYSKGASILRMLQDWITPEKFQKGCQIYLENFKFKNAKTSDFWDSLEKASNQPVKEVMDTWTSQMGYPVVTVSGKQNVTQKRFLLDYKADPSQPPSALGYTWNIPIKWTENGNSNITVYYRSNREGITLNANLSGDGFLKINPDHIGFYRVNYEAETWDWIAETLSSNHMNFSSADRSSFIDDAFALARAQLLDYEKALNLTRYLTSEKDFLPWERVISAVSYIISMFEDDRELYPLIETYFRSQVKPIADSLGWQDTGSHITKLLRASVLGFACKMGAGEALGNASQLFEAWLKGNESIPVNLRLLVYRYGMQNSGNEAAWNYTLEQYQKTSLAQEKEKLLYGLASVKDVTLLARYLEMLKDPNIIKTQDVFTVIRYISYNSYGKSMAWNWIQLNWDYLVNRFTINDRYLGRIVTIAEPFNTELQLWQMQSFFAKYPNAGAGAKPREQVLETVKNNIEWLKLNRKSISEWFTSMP

For `Cc1cc(O)cc(C)c1C[C@H](NC(=O)[C@H](N)CCCNC(=N)N)C(=O)N[C@@H](CCCCN)C(=O)N[C@@H](Cc1ccccc1)C(N)=O` [SS-31, D-Arg-dimethylTyr-Lys-Phe-NH2] (H-[dR][Dmt]KF-NH2), in “in vivo” (kidney), the AUC(0-inf) amounted to 31300 ng·h/mL, the area under the curve AUC(0-t) is 27800 ng·h/mL, the concentration peaked (Cmax) at 17200 ng/mL and the Tmax was determined as 1 h. For the same compound, in “in vivo” (kidney), the half-life is 1.1 h and the level at time molar is about 140 nM. Moreover, in “in vivo” (liver), the AUC(0-inf) was determined as 22100 ng·h/mL, the AUC(0-t) was determined as 20700 ng·h/mL, the concentration peaked (Cmax) at 12700 ng/mL and the Tmax is 1 h. The same compound had a half-life in the data set “in vivo” (liver) of 0.9 h. In the data set “in vivo” (plasma), the total exposure AUC(0-inf) stood at 21100 ng·h/mL, the AUC(0-t) worked out at 21100 ng·h/mL, the Cmax amounted to 20000 ng/mL and the Tmax was 1 h. The compound also had a half-life in the data set “in vivo” (plasma) of 0.3 h. In data set [1] (time 0 h), the “Stability [% of T0]” value was 100%. The remaining at 0.5 h, 1 µM in data set [1] (time 0.5 h) turned out to be 89.3%. Also, the remaining at 1 h, 1 µM in data set [1] (time 1 h) stood at 85.3%. In addition, the remaining at 3 h, 1 µM in data set [1] (time 3 h) came out at 50.1%. Moreover, the remaining at 5 h, 1 µM in data set [1] (time 5 h) came to 43%. The compound also displayed an IC50 on aminopeptidase A (APA) [2] of 8.5 ± 3.8 µM.
For `CC(C)C[C@@H](N)[C@H](O)C(=O)N[C@H](C(=O)N[C@H](C(=O)N[C@@H](CC(=O)O)C(=O)O)C(C)C)C(C)C` [amastatin], the IC50 on aminopeptidase A (APA) [2] (intact living EC219 cells, 40 µM α-Glu-AMC, read-out: IC50 APA) was under 1 µM.
On to `Cc1cc(O)cc(C)c1C[C@H](NC(=O)[C@@H](CCCNC(=N)N)NC(=O)[C@@H](N)CCC(=O)O)C(=O)N[C@@H](CCCCN)C(=O)N[C@@H](Cc1ccccc1)C(N)=O` [α-Glu-SS-31, H-Glu-D-Arg-DMT-Lys-Phe-NH 2 .2TFA] (H-E[dR][Dmt]KF-NH2), for which, in data set [1] (time 0 h), the “Release of SS-31 from α-Glu-SS-31” value is 7.5% and the “Stability [% of T0]” value came to 100%. In data set [1] (time 0.5 h), the “Release of SS-31 from α-Glu-SS-31” value amounted to 9% and the remaining at 0.5 h, 1 µM is 68.5%. For the same compound, in data set [1] (time 1 h), the “Release of SS-31 from α-Glu-SS-31” value is given as 9% and the remaining at 1 h, 1 µM worked out at 68.3%. Besides, in data set [1] (time 3 h), the “Release of SS-31 from α-Glu-SS-31” value was 10% and the remaining at 3 h, 1 µM came to 66.9%. In data set [1] (time 5 h), the “Release of SS-31 from α-Glu-SS-31” value stood at 9% and the remaining at 5 h, 1 µM amounted to 65.8%. Moreover, the “enzymatic activity of APA (histoenzymography)” value at aminopeptidase A (APA) [3] is “selectively inhibited”. On aminopeptidase A (APA) [2], this compound yielded an IC50 of 13.7 ± 6.7 µM. Moreover, the “inhibition of APA activity” value against aminopeptidase A (APA) [2] (intact living EC219 cells) was “selective inhibition”.

What is called AUC(0-inf) is the area under the concentration-time curve extrapolated to infinity. A lower AUC(0-inf) goes with less exposure. What is called AUC(0-t) is the area under the concentration-time curve up to a stated or last time point. A low value points to low exposure. As a reminder, the Cmax is the highest concentration seen after dosing. By Tmax is commonly meant the time at which the peak concentration occurs. In general, half-life refers to the time in which the quantity being followed falls by half. Low values mean fast loss, high ones slow loss. By IC50 is commonly meant the concentration that inhibits the measured activity by half.
